Key:
Format in all cases: binding
AAK1 (121-471) = AAK1 (121-471) (Homo sapiens, UniProt Q2M2I8); test: STD-NMR fragment screening, AAK1; settings: for AAK1 (STD-NMR hit flag): 1 = hit, 0 = no hit
In short: (§1)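 Saturation-transfer difference NMR was run at 25°C and 700 MHz with 20 µM protein, two fragments at 1 mM each, and 10% DMSO-d6. On-resonance saturation was at 0.5–0.6 ppm and off-resonance at 40 ppm, with a 3 s Gaussian-pulse train. A hit required a difference-spectrum peak at least three times the local noise.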

IDO1 (1-435) = molecular target: T1, IDO1 (1-435) (Homo sapiens, UniProt P14902); test: STD-NMR fragment screening, IDO1; settings: for IDO1 (STD-NMR hit flag): 1 = hit, 0 = no hit
T1 construct: His-tag of pET15b with TEV site (thrombin site replaced) (cleaved yes); made in house; host or cells: E. coli Rosetta 2 (DE3) pLysS
T1 sequence (P14902 whole entry, the tested form may be a part): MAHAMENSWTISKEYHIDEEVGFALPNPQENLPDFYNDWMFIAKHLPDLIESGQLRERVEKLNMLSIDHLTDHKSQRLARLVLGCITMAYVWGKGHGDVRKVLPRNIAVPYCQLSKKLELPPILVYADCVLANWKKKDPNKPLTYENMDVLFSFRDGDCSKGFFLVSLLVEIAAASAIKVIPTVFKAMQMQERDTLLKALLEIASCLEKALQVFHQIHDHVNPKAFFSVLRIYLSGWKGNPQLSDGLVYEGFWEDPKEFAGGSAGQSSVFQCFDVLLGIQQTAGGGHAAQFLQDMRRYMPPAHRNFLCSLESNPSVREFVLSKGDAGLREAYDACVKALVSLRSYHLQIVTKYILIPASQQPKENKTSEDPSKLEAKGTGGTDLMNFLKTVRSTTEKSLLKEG
In short: as §1

DOT1L (1-416) = molecular target: T2, DOT1L (1-416) (Homo sapiens, UniProt Q8TEK3); test: STD-NMR fragment screening, DOT1L; settings: for DOT1L (STD-NMR hit flag): 1 = hit, 0 = no hit
T2 construct: made in house; host or cells: E. coli BL21 (DE3) pLysS
T2 sequence (Q8TEK3 1-416): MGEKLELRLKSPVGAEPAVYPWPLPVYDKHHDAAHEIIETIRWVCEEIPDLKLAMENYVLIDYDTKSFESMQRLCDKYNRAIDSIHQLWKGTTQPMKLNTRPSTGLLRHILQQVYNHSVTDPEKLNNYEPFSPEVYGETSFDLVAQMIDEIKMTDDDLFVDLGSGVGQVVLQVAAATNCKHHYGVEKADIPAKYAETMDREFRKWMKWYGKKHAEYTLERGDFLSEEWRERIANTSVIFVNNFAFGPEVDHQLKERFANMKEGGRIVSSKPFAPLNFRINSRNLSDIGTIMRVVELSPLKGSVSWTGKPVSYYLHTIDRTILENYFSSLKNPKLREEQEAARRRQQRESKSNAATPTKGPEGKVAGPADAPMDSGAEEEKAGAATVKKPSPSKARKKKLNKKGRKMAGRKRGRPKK
In short: as §1

CAMK1G (1-320) = molecular target: T3, CAMK1G (1-320) (Homo sapiens, UniProt Q96NX5); test: STD-NMR fragment screening, CAMK1G; settings: for CAMK1G (STD-NMR hit flag): 1 = hit, 0 = no hit
T3 construct: made in house; host or cells: E. coli BL21 (DE3) pLysS
T3 sequence (Q96NX5 1-320): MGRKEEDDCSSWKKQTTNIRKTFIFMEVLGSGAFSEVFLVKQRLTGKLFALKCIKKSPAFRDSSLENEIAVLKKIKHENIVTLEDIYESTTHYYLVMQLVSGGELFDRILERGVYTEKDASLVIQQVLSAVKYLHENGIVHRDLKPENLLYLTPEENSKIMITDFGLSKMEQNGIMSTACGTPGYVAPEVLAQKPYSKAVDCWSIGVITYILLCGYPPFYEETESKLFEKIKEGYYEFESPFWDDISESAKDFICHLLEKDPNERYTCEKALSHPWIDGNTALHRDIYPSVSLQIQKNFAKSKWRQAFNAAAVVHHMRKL
In short: as §1

[1] = 1 mM fragment, 20 µM protein, hit if peak in difference spectrum three times higher than local noise

Chain of AAK1 (121-471) (Q2M2I8 46-315 limits assumed): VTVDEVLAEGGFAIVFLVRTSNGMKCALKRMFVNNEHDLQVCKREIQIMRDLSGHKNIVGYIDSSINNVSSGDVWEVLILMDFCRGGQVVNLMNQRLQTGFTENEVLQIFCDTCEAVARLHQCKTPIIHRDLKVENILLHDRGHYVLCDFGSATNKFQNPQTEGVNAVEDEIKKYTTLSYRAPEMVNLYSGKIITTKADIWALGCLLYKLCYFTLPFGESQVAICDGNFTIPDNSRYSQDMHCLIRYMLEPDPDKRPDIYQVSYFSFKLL

AAK1 (STD-NMR hit flag) (AAK1 (121-471)) | IDO1 (STD-NMR hit flag) (IDO1 (1-435)) | DOT1L (STD-NMR hit flag) (DOT1L (1-416)) | CAMK1G (STD-NMR hit flag) (CAMK1G (1-320)) | STD-NMR hit (AAK1 (121-471); [1]) | STD-NMR hit (IDO1 (1-435); [1]) | STD-NMR hit (DOT1L (1-416); [1]) | STD-NMR hit (CAMK1G (1-320); [1]) | SMILES
1 | 0 | 0 | 0 |  |  |  |  | Oc1cccc(O)c1Br [Fragment B02297401]
0 | 0 | 0 | 0 |  |  |  |  | Fc1cc(C2CNCCN2)c(Cl)cc1Cl (stereo not drawn) [Fragment B02297397]
0 | 0 | 0 | 0 |  |  |  |  | O=c1[nH]cnc(O)c1Br [Fragment B02289618]
0 | 0 | 0 | 0 |  |  |  |  | Nc1nc(Cl)c(NC=O)c(Cl)n1 [Fragment B02297412]
1 | 1 | 0 | 1 |  |  |  |  | Cc1onc(N)c1I [Fragment B02290521]
1 | 0 | 1 | 0 |  |  |  |  | COC(=O)c1cc(N)c(Cl)s1 [Fragment B02297407]
1 | 1 | 0 | 0 |  |  |  |  | O=[N+]([O-])c1cnc(Br)[nH]1 [Fragment B02289601]
0 | 0 | 0 | 0 |  |  |  |  | O=C(O)c1ccc(Br)cn1 [Fragment B02291245]
0 | 0 | 0 | 1 |  |  |  |  | Cc1nn(CCO)c(N)c1I [Fragment B02291250]
1 | 1 | 0 | 0 |  |  |  |  | COc1cc(OC)nc(Cl)n1 [Fragment B02291246]
0 | 0 | 0 | 0 |  |  |  |  | [O-][n+]1ccc(Cl)cc1 [Fragment B02297421]
0 | 0 | 0 | 1 |  |  |  |  | Nc1ccc2[nH]nc(Br)c2c1 [Fragment B02289605]
0 | 0 | 0 | 0 |  |  |  |  | O=S(=O)(CCO)c1n[nH]c(Cl)n1 [Fragment B02290402]
0 | 0 | 0 | 0 |  |  |  |  | O=C(O)c1cc(Br)c[nH]1 [Fragment B02291264]
1 | 0 | 0 | 1 |  |  |  |  | Nc1ncc(Br)cc1CO [Fragment B02290475]
0 | 0 | 0 | 0 |  |  |  |  | Cn1nc(C(F)(F)F)c(CO)c1Cl [Fragment B02291214]
0 | 0 | 0 | 0 |  |  |  |  | N#Cc1ccnc(Cl)c1 [Fragment B02291271]
0 | 0 | 0 | 0 |  |  |  |  | O=C(O)CCc1nc(Br)n[nH]1 [Fragment B02290119]
0 | 0 | 0 | 1 |  |  |  |  | Brc1cnc2cnccn12 [Fragment B02289617]
0 | 0 | 0 | 0 |  |  |  |  | O=C(O)c1cc(Br)c[nH]c1=O [Fragment B02290523]
0 | 0 | 0 | 0 |  |  |  |  | Fc1ncccc1I [Fragment B02291262]
1 | 0 | 0 | 0 |  |  |  |  | OC1CCN(c2cc(Cl)ncn2)CC1 [Fragment B02297410]
0 | 0 | 0 | 0 |  |  |  |  | CC(=O)CS(=O)(=O)c1cc(Cl)ccc1F [Fragment B02297765]

AAK1 (STD-NMR hit flag) (AAK1 (121-471)) | IDO1 (STD-NMR hit flag) (IDO1 (1-435)) | DOT1L (STD-NMR hit flag) (DOT1L (1-416)) | CAMK1G (STD-NMR hit flag) (CAMK1G (1-320)) | STD-NMR hit (AAK1 (121-471); [1]) | STD-NMR hit (IDO1 (1-435); [1]) | STD-NMR hit (DOT1L (1-416); [1]) | STD-NMR hit (CAMK1G (1-320); [1]) | SMILES
0 | 0 | 0 | 0 |  |  |  |  | O=C1Nc2cccc(Cl)c2C1=O [Fragment B02291255]
0 | 0 | 0 | 0 |  |  |  |  | Nc1ncc(C(=O)O)cc1Br [Fragment B02297655]
0 | 0 | 0 | 0 |  |  |  |  | O=C(O)c1ncccc1Br [Fragment B02289614]
0 | 0 | 0 | 1 |  |  |  |  | O=C1CCS(=O)(=O)c2ccc(Cl)cc21 [Fragment B02291253]
0 | 0 | 0 | 0 |  |  |  |  | CC(Cn1cc(Cl)cn1)C(=O)O (stereo not drawn) [Fragment B02290481]
1 | 0 | 0 | 0 |  |  |  |  | Nc1c(Cl)ccc(O)c1Cl [Fragment B02290471]
0 | 0 | 0 | 0 |  |  |  |  | O=C(O)C(O)c1ccccc1Cl (stereo not drawn) [Fragment B02291247]
1 | 0 | 0 | 0 |  |  |  |  | COCn1nc(Br)nc1C(N)=O [Fragment B02290403]
1 | 0 | 0 | 0 |  |  |  |  | O=C(O)c1cncc(Cl)c1 [Fragment B02289604]
0 | 0 | 0 | 0 |  |  |  |  | O=C(O)c1cccc(Cl)n1 [Fragment B02289597]
0 | 0 | 0 | 0 |  |  |  |  | O=C(O)c1ccncc1Br [Fragment B02297426]
 |  |  |  | pan-target hit | pan-target hit | pan-target hit | pan-target hit | Cn1c(Cl)c(C#N)c(=O)n(C)c1=O [Fragment 1234]
1 | 0 | 0 | 0 |  |  |  |  | Nc1c(Cl)ccc2nonc12 [Fragment B02291217]
0 | 0 | 0 | 0 |  |  |  |  | O=C(O)c1cncc(Cl)n1 [Fragment B02289611]
0 | 0 | 0 | 0 |  |  |  |  | Nc1ccc(C(=O)O)c(Cl)c1 [Fragment B02291259]
0 | 0 | 0 | 0 |  |  |  |  | O=C(O)c1cnc(Cl)cn1 [Fragment B02291251]
0 | 1 | 0 | 0 |  |  |  |  | O=C(O)c1c(Cl)cncc1Cl [Fragment B02297411]
1 | 1 | 0 | 1 |  |  |  |  | COc1ncc(C(=O)O)cc1Cl [Fragment B02297423]
0 | 0 | 0 | 0 |  |  |  |  | NCc1cc(Br)no1 [Fragment B02289609]
1 | 0 | 0 | 1 |  |  |  |  | Nc1ncc(C(F)(F)F)cc1Cl [Fragment B02291219]
0 | 0 | 0 | 0 |  |  |  |  | O=C(O)c1n[nH]cc1Br [Fragment B02290463]
0 | 0 | 0 | 0 |  |  |  |  | Brc1cncnc1 [Fragment B02289809]
1 | 0 | 0 | 1 |  |  |  |  | CCn1ncc(Br)c1C(N)=O [Fragment B02291150]

SMILES | AAK1 (STD-NMR hit flag) (AAK1 (121-471)) | IDO1 (STD-NMR hit flag) (IDO1 (1-435)) | DOT1L (STD-NMR hit flag) (DOT1L (1-416)) | CAMK1G (STD-NMR hit flag) (CAMK1G (1-320)) | STD-NMR hit (AAK1 (121-471); [1]) | STD-NMR hit (IDO1 (1-435); [1]) | STD-NMR hit (DOT1L (1-416); [1]) | STD-NMR hit (CAMK1G (1-320); [1])
NS(=O)(=O)c1cc(C(=O)O)ccc1Cl [Fragment B02291263] | 0 | 0 | 0 | 0 |  |  |  | 
Oc1ccc(Cl)cc1 [Fragment B02294485] | 0 | 0 | 0 | 0 |  |  |  | 
